From patent publication US12336981B2, “Compounds and compositions for the inhibition of NAMPT” (Valo Health, Inc., priority 2010, dated 2025)
Like-named read-outs stand apart in the source and are kept apart here.

Experiments:
[1] = target: T1, NAMPT (Homo sapiens, UniProt P43490); assay: Biochemical inhibition assay: NAMPT enzymatic reaction, NMN quantified by mass spectrometry; conditions: read-out: Biochem IC50
T1 construct: His tag; host or cells: E. coli
Procedure, shortened: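 Inhibition of E. coli-expressed His-tagged human NAMPT, measured as NMN formation by mass spectrometry after a 30 min room-temperature reaction containing 1 μM NAM, 100 μM PRPP and 2.5 mM ATP.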

[2] = system: A2780 cells; assay: In-vitro cell proliferation assay (SRB), A2780 cells; assay type: cell-based; conditions: Homo sapiens, A2780, 72 h, A2780 cells, 72 hours, read-out: A2780 IC50
Procedure, shortened: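 Viable cells measured by SRB staining after 6% TCA fixation, absorbance 570 nm. Media-only background subtracted; % inhibition derived at two compound concentrations.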

T1 sequence (P43490 whole entry): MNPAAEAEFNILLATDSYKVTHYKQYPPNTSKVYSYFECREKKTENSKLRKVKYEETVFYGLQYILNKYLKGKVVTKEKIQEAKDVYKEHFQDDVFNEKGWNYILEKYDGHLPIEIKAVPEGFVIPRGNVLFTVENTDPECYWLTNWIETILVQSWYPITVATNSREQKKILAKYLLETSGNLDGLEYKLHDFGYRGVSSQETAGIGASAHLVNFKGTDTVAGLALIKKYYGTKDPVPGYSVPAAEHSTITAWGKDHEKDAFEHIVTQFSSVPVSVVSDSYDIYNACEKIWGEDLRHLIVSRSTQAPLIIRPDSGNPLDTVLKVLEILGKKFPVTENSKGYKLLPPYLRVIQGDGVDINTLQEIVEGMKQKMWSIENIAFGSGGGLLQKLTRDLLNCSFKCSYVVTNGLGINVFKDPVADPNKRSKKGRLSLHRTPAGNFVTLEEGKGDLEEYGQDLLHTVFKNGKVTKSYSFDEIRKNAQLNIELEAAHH

SMILES	IC50 ([1]; NAMPT enzymatic reaction) [nM]	IC50 ([2]; SRB) [nM]	IC50 ([1]; NAMPT enzymatic assay) [nM]	IC50 ([2]; SRB assay) [nM]
Nc1ccc(C(=O)NCc2ccc(S(=O)(=O)c3cc(F)cc(F)c3)cc2)cn1 [6-amino-N-({4-[(3,5-difluorobenzene)sulfonyl]phenyl}methyl)pyridine-3-carboxamide]	14.2	275	–	–
O=C(NCc1ccc(S(=O)(=O)c2ccc(-n3cccn3)nc2)cc1)c1ccc2nccn2c1 [N-({4-[6-(1H-pyrazol-1-yl)pyridine-3-sulfonyl]phenyl}methyl)imidazo[1,2-a]pyridine-6-carboxamide]	–	1.9	4	–
O=C(NCc1ccc(S(=O)(=O)c2ccc(-n3cccn3)cc2F)cc1)c1cc2ccncc2o1	–	8	18.4	–
O=C(NCc1ccc(S(=O)(=O)c2cccc(Cl)c2)cc1)c1cc2ccncc2o1 [N-({4-[{3-chlorobenzene)sulfonyl]phenyl}methyl)furo[2,3-c]pyridine-2-carboxamide]	6	3.3	–	–
COc1c(F)cccc1S(=O)(=O)c1ccc(CNC(=O)c2cc3cnccc3[nH]2)cc1	32.4	6.3	–	–
O=C(NCc1ccc(S(=O)(=O)c2cnc(N3CCCC3)s2)cc1)c1cnc2nccn2c1 [N-({4-[2-(pyrrolidin-1-yl)-1,3-thiazole-5-sulfonyl]phenyl}methyl)imidazo[1,2-a]pyrimidine-6-carboxamide]	–	0.9	2.9	–
CCCCOc1ccc(S(=O)(=O)c2ccc(CNC(=O)c3ccc4nccn4c3)cc2)cc1F	6.2	3.1	–	–
O=C(NCc1ccc(S(=O)(=O)c2ccc(OCC(F)(F)F)c(F)c2)cc1)c1cc2ccncc2s1	–	23.5	4.6	–
CCOc1cc(S(=O)(=O)c2ccc(CNC(=O)c3cnc4[nH]ncc4c3)cc2)ccc1F [N-({4-[(3-ethoxy-4-fluorobenzene)sulfonyl]phenyl}methyl)-1H-pyrazolo[3,4-b]pyridine-5-carboxamide]	26.1	12	–	–
N#Cc1ccc(S(=O)(=O)c2ccc(CNC(=O)c3ccc4nccn4c3)cc2)cc1	16	14.1	–	–
O=C(NCc1ccc(S(=O)(=O)c2cc(F)ccc2Cl)cc1)c1cnc2nccn2c1	10.5	53	–	–
Cc1cc(C)cc(S(=O)(=O)c2ccc(CNC(=O)c3cc4ccncc4s3)cc2)c1 [N-({4-[(3,5-dimethylbenzene)sulfonyl]phenyl}methyl)thieno[2,3-c]pyridine-2-carboxamide]	5	–	–	1.8
O=C(NCc1ccc(S(=O)(=O)c2ccc(-n3ccnc3)cc2)cc1)c1cnc2nccn2c1	–	12.2	< 0.65	–
CCCCOc1ccc(S(=O)(=O)c2ccc(CNC(=O)c3cc4cnccc4[nH]3)cc2)c(C)c1	80	62.5	–	–
CCCCOc1cccc(S(=O)(=O)c2ccc(CNC(=O)c3ccc4nccn4c3)cc2)c1	4.7	18	–	–
O=C(NCc1ccc(S(=O)(=O)c2ccc3c(c2)OCCO3)cc1)c1cc2ccncc2s1 [N-{[4-(2,3-dihydro-1,4-benzodioxine-6-sulfonyl)phenyl]methyl}thieno[2,3-c]pyridine-2-carboxamide]	4	–	–	2.7
O=C(NCc1ccc(S(=O)(=O)c2cccc3cccnc23)cc1)c1ccc2nccn2c1 [N-{[4-(quinoline-8-sulfonyl)phenyl]methyl}imidazo[1,2-a]pyridine-6-carboxamide]	–	5.5	9.8	–
Cc1cc(F)ccc1S(=O)(=O)c1ccc(CNC(=O)c2cc3cnccc3[nH]2)cc1 [N-({4-[(4-fluoro-2-methylbenzene)sulfonyl]phenyl}methyl)-1H-pyrrolo[3,2-c]pyridine-2-carboxamide]	19	–	–	27

SMILES	IC50 ([1]; NAMPT enzymatic reaction) [nM]	IC50 ([2]; SRB) [nM]	IC50 ([1]; NAMPT enzymatic assay) [nM]	IC50 ([2]; SRB assay) [nM]
O=C(NCc1ccc(S(=O)(=O)c2ccc3nc(C(F)(F)F)cn3c2)cc1)c1ccc2nccn2c1 [N-({4-[2-(trifluoromethyl)imidazo[1,2-a]pyridine-6-sulfonyl]phenyl}methyl)imidazo[1,2-a]pyridine-6-carboxamide]	–	7	36.2	–
O=C(NCc1ccc(S(=O)(=O)c2ccc(F)c(C(F)(F)F)c2)cc1)c1cc2ccncc2s1	–	2.8	4	–
COc1cc(S(=O)(=O)c2ccc(CNC(=O)c3cnc4[nH]ncc4c3)cc2)ccc1Cl	12.7	13	–	–
CCCOc1ccccc1NS(=O)(=O)c1ccc(CNC(=O)c2cc3cnccc3[nH]2)cc1 [N-({4-[(2-propoxyphenyl)sulfamoyl]phenyl}methyl)-1H-pyrrolo[3,2-c]pyridine-2-carboxamide]	52	–	–	100
O=C(NCc1ccc(S(=O)(=O)c2cc(F)ccc2CO)cc1)c1cnc2[nH]ncc2c1 [N-[(4-{[5-fluoro-2-(hydroxymethyl)benzene]sulfonyl}phenyl)methyl]-1H-pyrazolo[3,4-b]pyridine-5-carboxamide]	–	100 to 1000	109	–
Cc1cc(S(=O)(=O)c2ccc(CNC(=O)c3cnc4nccn4c3)cc2)ccc1F	2.2	9.6	–	–
COc1ccc(S(=O)(=O)c2ccc(CNC(=O)c3ccc4nccn4c3)cc2)cc1F [N-({4-[(3-fluoro-4-methoxybenzene)sulfonyl]phenyl}methyl)imidazo[1,2-a]pyridine-6-carboxamide]	5.95	2.89	–	–
O=C(NCCc1ccc(S(=O)(=O)c2ccccc2)cc1)c1cc2cnccc2[nH]1 [N-{2-[4-(benzenesulfonyl)phenyl]ethyl}-1H-pyrrolo[3,2-c]pyridine-2-carboxamide]	410	–	–	9100
CCCOc1ccc(S(=O)(=O)c2ccc(CNC(=O)c3cnc4nccn4c3)cc2)c(C)c1	10	51.8	–	–
Cc1csc(S(=O)(=O)c2ccc(CNC(=O)c3ccc4nccn4c3)cc2)c1 [N-{[4-(4-methylthiophene-2-sulfonyl)phenyl]methyl}imidazo[1,2-a]pyridine-6-carboxamide]	–	12.5	12.4	–
Cc1ccc(C)c(S(=O)(=O)c2ccc(CNC(=O)c3cc4ccncc4s3)cc2)c1 [N-({4-[(2,5-dimethylbenzene)sulfonyl]phenyl}methyl)thieno[2,3-c]pyridine-2-carboxamide]	11	–	–	8.6
O=C(NCc1ccc(S(=O)(=O)c2ccc3ncccc3c2)cc1)c1cc2ccncc2s1 [N-{[4-(quinoline-6-sulfonyl)phenyl]methyl}thieno[2,3-c]pyridine-2-carboxamide]	3	–	–	0.9
CCCn1cc(S(=O)(=O)c2ccc(CNC(=O)c3ccc4nccn4c3)cc2)cn1 [N-{[4-(1-propyl-1H-pyrazole-4-sulfonyl)phenyl]methyl}imidazo[1,2-a]pyridine-6-carboxamide]	–	5.2	4.9	–
Cc1ccncc1S(=O)(=O)c1ccc(CNC(=O)c2cc3ccncc3o2)cc1 [N-{[4-(4-methylpyridine-3-sulfonyl)phenyl]methyl}furo[2,3-c]pyridine-2-carboxamide]	–	62	25.2	–
CC(C)NC(=O)c1cccc(S(=O)(=O)c2ccc(CNC(=O)c3cc4ccncc4o3)cc2)c1	–	15.7	15.1	–
NS(=O)(=O)c1cccc(S(=O)(=O)c2ccc(CNC(=O)c3cnc4[nH]ncc4c3)cc2)c1 [N-({4-[(3-sulfamoylbenzene)sulfonyl]phenyl}methyl)-1H-pyrazolo[3,4-b]pyridine-5-carboxamide]	30.1	100 to 1000	–	–
COc1ccc(OC(F)(F)F)cc1S(=O)(=O)c1ccc(CNC(=O)c2cnc3[nH]ncc3c2)cc1	–	24.6	92.6	–
